Data: patent publication US8404684B2, “Inhibitors of phosphatidylinositol 3-kinase” (Novartis AG, priority 2003, dated 2013)

Target: T1, recombinant GST-p110γ (human PI3Kγ, residues 38-1102) (Homo sapiens, UniProt P48736)
T1 construct: Residues 38-1102 of human PI3Kγ are subcloned into the BamH1 and EcoR1 sites; made in house; host or cells: Sf9 (Spodoptera frugiperda) insect cells, baculovirus
Assay: PI3Kγ in vitro kinase assay (Scintillation Proximity Assay), transfer of terminal phosphate of ATP to phosphatidylinositol
Assay type: biochemical
Details: 12.5 μM ATP, 15 μg/ml phosphatidylinositol, 60 minutes at room temperature
Source text: Baculovirus expressing different fragments of PI3Kγ fused to GST have been previously described by Stoyanova, S., Bulgarelli-Leva, G., Kirsch, C., Hanck, T., Klinger, R., Wetzker, R., Wymann, M. P. (1997) Lipid- and protein kinase activities of G protein-coupled PI 3-kinase g: structure-activity analysis and interactions with wortmannin. Biochem. J., 324:489. Residues 38-1102 of human PI3Kγ are subcloned into the BamH1 and EcoR1 sites of the transfer vector pAcG2T (Pharmingen) to create a GST-PI3Kγ lacking the first 37 residues of PI3Kγ. To express the recombinant protein, Sf9 (Spodoptera frugiperda 9) insect cells are routinely maintained at densities between 3×10^5 and 3×10^6 cells/ml in serum containing TNMFH medium (Sigma). Sf9 cells, at a density of 2×10^6 are infected with human GST-PI3KγΔ34 baculovirus at a multiplicity of infection (m.o.i.) of 1 for 72 hours. The infected cells are harvested by centrifugation at 1400 g for 4 minutes at 4° C. and the cell pellets are frozen at −80° C. Both Sf9 and Sf21 cells work equally well. Sf9 cells (1×10^9) are resuspended in 100 ml cold (4° C.) lysis buffer (50 mM Tris-HCl pH 7.5, 1% Triton X-100, 150 mM NaCl, 1 mM NaF, 2 mM DTT and protease inhibitors. Cells are incubated on ice for 30 minutes then centrifuged at 15000 g for 20 minutes at 4° C. Purification of the supernatant sample is carried out at 4° C. by affinity chromatography using SEPHAROSE™ agarose gel beads coupled to glutathione (from Amersham Pharmacia Biotech). A cell lysate/GST resin ratio of 50:1 is used. The GST resin is firstly pre-rinsed to remove ethanol preservative and then equilibrated with lysis buffer. Cell lysate (supernatant) is added (usually as 50 ml lysate to 1 ml GST resin in 50 ml tubes) and gently rotated on a mixer at 4° C. for 2-3 hours. The unbound flow through sample is collected by centrifugation at 1000 g for 5 minutes at 4° C. using a DENLEY™ centrifuge. The 1 ml GST resin containing bound material is transferred to a 15 ml FALCON™ centrifuge tube for subsequent washing and elution steps. Firstly a series of 3 cycles of washings (mixing by gentle inversion) is performed with 15 ml ice cold wash Buffer A (50 mM Tris-HCl pH 7.5, 1% Triton X-100, 2 mM DTT) interspersed with centrifugation at 1000 g for 5 minutes at 4° C. A final single wash step is performed with 15 ml ice cold wash Buffer B (50 mM Tris-HCl pH 7.5, 2 mM DTT) and then centrifuged at 1000 g for 5 minutes at 4° C. The washed GST resin is finally eluted with 4 cycles of 1 ml ice cold elution buffer (50 mM Tris-HCl pH 7.5, 10 mM reduced glutathione, 2 mM DTT, 150 mM NaCl, 1 mM NaF, 50% ethylene glycol and protease inhibitors) interspersed with centrifugation at 1000 g for 5 minutes at 4° C. Samples are aliquoted and stored at −20° C.
An in vitro kinase assay is established that measures the transfer of the terminal phosphate of adenosine triphosphate to phosphatidylinositol. The kinase reaction is performed in a white 96 well microtitre plate as a Scintillation Proximity Assay. Each well contains 10 μl test compound in 5% dimethylsulphoxide and 20 μl assay mix (40 mM Tris, 200 mM NaCl, 2 mM ethyleneglycol-aminoethyl-tetraacetic acid (EGTA), 15 μg/ml phosphatidylinositol, 12.5 μM adenosine triphosphate (ATP), 25 mM MgCl2, 0.1 μCi [^33P]ATP). The reaction is started by the addition of 20 μl of enzyme mix (40 mM Tris, 200 mM NaCl, 2 mM EGTA containing recombinant GST-p110γ). […]

T1 sequence (P48736 38-1102): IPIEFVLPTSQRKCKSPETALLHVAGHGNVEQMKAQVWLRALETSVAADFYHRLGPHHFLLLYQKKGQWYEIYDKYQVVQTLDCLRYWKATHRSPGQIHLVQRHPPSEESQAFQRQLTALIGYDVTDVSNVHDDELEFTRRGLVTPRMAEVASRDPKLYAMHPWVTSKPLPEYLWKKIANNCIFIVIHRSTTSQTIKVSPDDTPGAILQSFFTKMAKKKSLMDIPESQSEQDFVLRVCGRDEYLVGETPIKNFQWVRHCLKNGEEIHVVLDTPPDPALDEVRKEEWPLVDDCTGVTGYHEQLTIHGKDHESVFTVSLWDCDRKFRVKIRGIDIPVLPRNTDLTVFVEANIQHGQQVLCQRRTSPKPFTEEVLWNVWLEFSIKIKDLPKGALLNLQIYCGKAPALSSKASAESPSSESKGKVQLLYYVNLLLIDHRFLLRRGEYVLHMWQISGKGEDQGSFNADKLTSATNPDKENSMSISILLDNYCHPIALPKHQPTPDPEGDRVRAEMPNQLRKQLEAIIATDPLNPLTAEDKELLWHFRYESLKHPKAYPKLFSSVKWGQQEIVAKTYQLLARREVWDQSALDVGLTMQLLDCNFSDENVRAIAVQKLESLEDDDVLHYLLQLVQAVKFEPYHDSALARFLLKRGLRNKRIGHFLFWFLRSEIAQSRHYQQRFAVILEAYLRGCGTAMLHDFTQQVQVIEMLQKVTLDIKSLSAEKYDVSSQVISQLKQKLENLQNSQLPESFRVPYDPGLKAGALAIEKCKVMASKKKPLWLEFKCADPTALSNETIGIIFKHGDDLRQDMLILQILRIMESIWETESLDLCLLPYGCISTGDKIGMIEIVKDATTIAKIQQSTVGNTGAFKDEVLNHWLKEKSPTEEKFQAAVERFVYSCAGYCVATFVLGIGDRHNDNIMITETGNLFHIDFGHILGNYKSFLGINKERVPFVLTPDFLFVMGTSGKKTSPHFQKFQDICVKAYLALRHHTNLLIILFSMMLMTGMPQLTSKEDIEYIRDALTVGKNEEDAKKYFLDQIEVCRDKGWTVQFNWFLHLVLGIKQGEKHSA

Row | IC50 | Molecule
1 | 8 nM | CCOCCNC(=O)Nc1nc(C)c(-c2ccnc(C(C)(C)C)n2)s1 [Example 120, 1-[5-(2-tert-butyl-pyrimidin-4-yl)-4-methyl-thiazol-2-yl]-3-(2-ethoxy-ethyl)-urea]
2 | 5 nM | COCCNC(=O)Nc1nc(C)c(-c2ccnc(C(C)(C)C)n2)s1 [Example 108, 1-[5-(2-tert-butyl-pyrimidin-4-yl)-4-methyl-thiazol-2-yl]-3-(2-methoxy-ethyl)-urea]
3 | 25 nM | Cc1nc(N)sc1-c1ccnc(C(C)(C)C)n1 [Example 91, 5-(2-tert-Butyl-pyrimidin-4-yl)-4-methyl-thiazol-2-ylamine]
4 | 164 nM | Cc1nc(NC(=O)NCCC(=O)OC(C)(C)C)sc1-c1ccnc(C2CC2)n1 [Example 82, 3-{3-[5-(2-cyclopropyl-pyrimidin-4-yl)-4-methyl-thiazol-2-yl]-ureido}-propionic acid tert-butyl ester]
5 | 17 nM | CC(=O)Nc1nc(C)c(-c2ccnc(C3CC3)n2)s1 [Example 27, N-[5-(2-Cyclopropyl-pyrimidin-4-yl)-4-methyl-thiazol-2-yl]-acetamide]
6 | 127 nM | CCc1cnc(CCNC(=O)Nc2nc(C)c(-c3cc(C)nc(OC)n3)s2)o1 [Example 56, 1-[2-(5-Ethyl-oxazol-2-yl)-ethyl]-3-[5-(2-methoxy-6-methyl-pyrimidin-4-yl)-4-methyl-thiazol-2-yl]-urea]
7 | 73 nM | CCc1cnc(CCNC(=O)Nc2nc(C)c(-c3ccnc(Cl)c3)s2)o1 [Example 33, 1-[5-(2-chloro-pyridin-4-yl)-4-methyl-thiazol-2-yl]-3-[2-(5-ethyl-oxazol-2-yl)-ethyl]-urea]

The next lines start with the molecule.

Row | Molecule | IC50
8 | 2-{3-[5-(2-methanesulfinyl-6-methyl-pyrimidin-4-yl)-4-methyl-thiazol-2-yl]-ureido}-N,N-dimethyl-acetamide [Example 67] | 16 nM
9 | Cc1nc(NC(=O)NCc2cccn2C)sc1-c1ccncc1 [Example 22, 1-(4-methyl-5-pyridin-4-yl-thiazol-2-yl)-3-(1-methyl-1H-pyrrol-2-ylmethyl)-urea] | 50 nM
10 | Cc1nc(Nc2cc[nH]n2)sc1-c1ccnc(N2CCOCC2)c1 [Example 11, [4-Methyl-5-(2-morpholin-4-yl-pyridin-4-yl)-thiazol-2-yl]-(1H-pyrazol-3-yl)-amine] | 93 nM
11 | Cc1nc(Nc2cnccn2)sc1-c1ccnc(-n2ccnc2)c1 [Example 6, [5-(2-Imidazol-1-yl-pyridin-4-yl)-4-methyl-thiazol-2-yl]-pyrazin-2-yl-amine] | 165 nM
12 | CCOC(=O)CCNC(=O)Nc1nc(C)c(-c2ccncc2)s1 [Example 17, 3-[3-(4-Methyl-5-pyridin-4-yl-thiazol-2-yl)-ureido]-propionic acid ethyl ester] | 106 nM
13 | Cc1nc(Nc2cnccn2)sc1-c1ccncc1 [Example 1, (4-Methyl-5-pyridin-4-yl-thiazol-2-yl)-pyrazin-2-yl-amine] | 75 nM
